Reference: patent publication US11679114B2, “Progestogen-only oral contraception” (Navad Life Sciences Pte, priority 2021, dated 2023)
Like-named read-outs stand apart in the source and are kept apart here.

Tests used:
[1] = tested on: healthy, cyclic women; assay: Diameter of the largest follicle-like structure (FLS) by transvaginal ultrasonography; type: in vivo, human
Experimental: The tablets prepared in Example 1 were tested in a single-center, open-label, adaptive design study to evaluate the influence on hormonal and ovarian function and vaginal bleeding pattern of different higher dosages of LNG administered once daily for 28 days over two consecutive treatment cycles in healthy, cyclic women.
Subjects started study medication intake on the first day of menstrual bleeding after the pre-treatment cycle. One tablet was taken orally, around the same time every morning, during 56 consecutive days. Study visits were planned every three (±1) days from treatment day 3 (±1) until 27 (±1) and from day 31 (±1) until day 55 (±1). At each visit the diameter of the largest follicle-like structure (FLS) and serum follicle-stimulating hormone (FSH), luteinizing hormone (LH), estradiol (E2) and P concentrations were measured.
If ovulation was observed during treatment, the subsequent luteal phase was evaluated using the Landgren criterion, i.e. the luteal phase was considered adequate when P concentrations were >16 nmol/L during at least 5 days (Landgren et al., “Hormonal effects of the 300 μg norethisterone (NET) minipill. 1. Daily steroid levels in 43 subjects during a pretreatment cycle and during the second month of NET administration,” Contraception 1980; 21: pp. 87-113). TVUS measurements of the diameter of the largest FLS (mean of two directions) were performed using a Voluson E8 Expert device (GE Medical Systems). Serum FSH, LH, E2, P and SHBG concentrations were determined by validated chemiluminescent microparticle immunoassays (Abbott, Longford, Ireland). All pharmacodynamic parameters were evaluated descriptively.

[2] = Multiple-dose pharmacokinetics, plasma LNG concentrations on treatment day 55 (±1); type: in vivo, human; conditions: for AUC(0-t) / Cmax: female, human, plasma, po, 0.095 mg per day
Experimental: Serum SHBG concentrations were determined after ovulation in the pre-treatment cycle, on treatment day 55 (±1) and at the end-of-study examination. Multiple-dose PK parameters were investigated in approximately 15 subjects per dose group, 5 of them having a BMI≥30 kg/m^2. Blood samples for LNG determination were taken on treatment day 55 (±1) pre-dose and 0.5, 1, 2, 3, 4, 6 and 24 hours after dosing.
Plasma LNG concentrations were determined by a validated liquid chromatography hyphenated with tandem mass spectrometry method (ACC, Leidersbach, Germany). PK parameters were derived by means of non-compartmental analysis. Analysis of Variance (ANOVA) was used as basis for the calculation of 90% confidence intervals; point estimates and confidence intervals for area under the curve (AUC) and maximum concentration (Cmax) values and comparison of treatments which were calculated by parametric analysis. Descriptive statistics for each treatment group and for subgroups with BMI<30 and ≥30 kg/m^2 were calculated.

[3] = LNG 0.095 mg per day, entire treatment period
[4] = LNG 0.095 mg per day, treatment period 1
[5] = LNG 0.095 mg per day, treatment period 2
[6] = LNG 0.115 mg per day, entire treatment period
[7] = LNG 0.115 mg per day, treatment period 1
[8] = LNG 0.115 mg per day, treatment period 2
[9] = LNG 0.135 mg per day, entire treatment period
[10] = LNG 0.135 mg per day, treatment period 1
[11] = LNG 0.135 mg per day, treatment period 2
[12] = 0.095 mg per day oral over 55 ± 1 consecutive days, entire treatment group
[13] = 0.115 mg per day oral over 55 ± 1 consecutive days, entire treatment group
[14] = 0.135 mg per day oral over 55 ± 1 consecutive days, entire treatment group

C#C[C@]1(O)CC[C@H]2[C@@H]3CCC4=CC(=O)CC[C@@H]4[C@H]3CC[C@@]21CC (racemic) [LNG, levonorgestrel]
Maximum FLS diameter, Mean ± SD ([1]; LNG 0.095 mg per day, BMI < 30 kg/m^2, entire treatment period): 22.5 ± 8.2 mm
Maximum FLS diameter, Mean ± SD ([1]; LNG 0.095 mg per day, BMI ≥ 30 kg/m^2, entire treatment period): 20.6 ± 6.9 mm
Maximum FLS diameter, Mean ± SD [1, 3]: 22.1 ± 7.9 mm
Maximum FLS diameter, Median [1, 3]: 22.5 mm
Maximum FLS diameter, Mean ± SD [1, 4]: 20.0 ± 8.6 mm
Maximum FLS diameter, Median [1, 4]: 20.6 mm
Maximum FLS diameter, Mean ± SD [1, 5]: 20.5 ± 7.5 mm
Maximum FLS diameter, Median [1, 5]: 20.2 mm
Maximum FLS diameter, Mean ± SD ([1]; LNG 0.115 mg per day, BMI < 30 kg/m^2, entire treatment period): 19.8 ± 7.5 mm
Maximum FLS diameter, Mean ± SD ([1]; LNG 0.115 mg per day, BMI ≥ 30 kg/m^2, entire treatment period): 27.9 ± 4.4 mm
Maximum FLS diameter, Mean ± SD [1, 6]: 21.4 ± 7.7 mm
Maximum FLS diameter, Median [1, 6]: 20.8 mm
Maximum FLS diameter, Mean ± SD [1, 7]: 20.4 ± 7.9 mm
Maximum FLS diameter, Median [1, 7]: 20.3 mm
Maximum FLS diameter, Mean ± SD [1, 8]: 19.9 ± 7.5 mm
Maximum FLS diameter, Median [1, 8]: 20.8 mm
Maximum FLS diameter, Mean ± SD ([1]; LNG 0.135 mg per day, BMI < 30 kg/m^2, entire treatment period): 18.4 ± 5.0 mm
Maximum FLS diameter, Mean ± SD ([1]; LNG 0.135 mg per day, BMI ≥ 30 kg/m^2, entire treatment period): 19.0 ± 7.1 mm
Maximum FLS diameter, Mean ± SD [1, 9]: 18.5 ± 5.3 mm
Maximum FLS diameter, Median [1, 9]: 18.1 mm
FLS diameter in one subject with possible abnormal ovulation ([1]; LNG 0.135 mg per day, one subject (BMI 20.4 kg/m^2), treatment day 3): 12.3 mm
Maximum FLS diameter, Mean ± SD [1, 10]: 16.6 ± 5.7 mm
Maximum FLS diameter, Median [1, 10]: 13.9 mm
Maximum FLS diameter, Mean ± SD [1, 11]: 17.4 ± 5.0 mm
Maximum FLS diameter, Median [1, 11]: 16.8 mm
AUC0-24, ss, Max [2, 12]: 23.2 ng·h/mL
AUC0-24, ss, Min [2, 12]: 7.29 ng·h/mL
Cmax, ss, Max [2, 12]: 3.12 ng/mL
Cmax, ss, Min [2, 12]: 0.903 ng/mL
AUC0-24, ss, Max [2, 13]: 26.1 ng·h/mL
AUC0-24, ss, Min [2, 13]: 5.58 ng·h/mL
Cmax, ss, Max [2, 13]: 2.83 ng/mL
Cmax, ss, Min [2, 13]: 0.73 ng/mL
AUC0-24, ss, Max [2, 14]: 30 ng·h/mL
AUC0-24, ss, Min [2, 14]: 10.2 ng·h/mL
Cmax, ss, Max [2, 14]: 3.23 ng/mL
Cmax, ss, Min [2, 14]: 1.14 ng/mL
Dose proportionality of total exposure over the dosing interval ([2]; 0.095, 0.115 and 0.135 mg per day, day 55±1): dose proportionality
AUC(0-t) ([2]; 0.095 mg per day oral over 55 ± 1 consecutive days, entire treatment group, read-out: AUC0-24, ss, Geometric Mean): 12.4 ng·h/mL
AUC(0-t) ([2]; 0.095 mg per day oral over 55 ± 1 consecutive days, entire treatment group, read-out: AUC0-24, ss, Mean): 13.1 ng·h/mL
AUC(0-t) ([2]; 0.095 mg per day oral over 55 ± 1 consecutive days, entire treatment group, read-out: AUC0-24, ss, Median): 11.8 ng·h/mL
Cmax ([2]; 0.095 mg per day oral over 55 ± 1 consecutive days, entire treatment group, read-out: Cmax, ss, Geometric Mean): 1.55 ng/mL
Cmax ([2]; 0.095 mg per day oral over 55 ± 1 consecutive days, entire treatment group, read-out: Cmax, ss, Mean): 1.65 ng/mL
Cmax ([2]; 0.095 mg per day oral over 55 ± 1 consecutive days, entire treatment group, read-out: Cmax, ss, Median): 1.63 ng/mL
AUC(0-t) ([2]; 0.095 mg per day oral over 55 ± 1 consecutive days, subgroup BMI < 30 kg/m2, read-out: AUC0-24, ss, Geometric mean): 14 ng·h/mL
Cmax ([2]; 0.095 mg per day oral over 55 ± 1 consecutive days, subgroup BMI < 30 kg/m2, read-out: Cmax, ss, Geometric mean): 1.83 ng/mL
